Test results as given in patent publication US11053213B2, “Pharmaceutical compounds” (ALMAC DISCOVERY LIMITED, priority 2016, dated 2021).

Molecular target: USP19 (Homo sapiens (Human), UniProt O94966)
Test: USP19 activity assay (fluorescence polarisation, Ubiquitin-Lys-TAMRA substrate)
Type: biochemical
Conditions: full-length USP19 2.5 nM, 30 min pre-incubation, Ub substrate 500 nM; average of at least two duplicate experiments

USP19, sequence (O94966 whole entry): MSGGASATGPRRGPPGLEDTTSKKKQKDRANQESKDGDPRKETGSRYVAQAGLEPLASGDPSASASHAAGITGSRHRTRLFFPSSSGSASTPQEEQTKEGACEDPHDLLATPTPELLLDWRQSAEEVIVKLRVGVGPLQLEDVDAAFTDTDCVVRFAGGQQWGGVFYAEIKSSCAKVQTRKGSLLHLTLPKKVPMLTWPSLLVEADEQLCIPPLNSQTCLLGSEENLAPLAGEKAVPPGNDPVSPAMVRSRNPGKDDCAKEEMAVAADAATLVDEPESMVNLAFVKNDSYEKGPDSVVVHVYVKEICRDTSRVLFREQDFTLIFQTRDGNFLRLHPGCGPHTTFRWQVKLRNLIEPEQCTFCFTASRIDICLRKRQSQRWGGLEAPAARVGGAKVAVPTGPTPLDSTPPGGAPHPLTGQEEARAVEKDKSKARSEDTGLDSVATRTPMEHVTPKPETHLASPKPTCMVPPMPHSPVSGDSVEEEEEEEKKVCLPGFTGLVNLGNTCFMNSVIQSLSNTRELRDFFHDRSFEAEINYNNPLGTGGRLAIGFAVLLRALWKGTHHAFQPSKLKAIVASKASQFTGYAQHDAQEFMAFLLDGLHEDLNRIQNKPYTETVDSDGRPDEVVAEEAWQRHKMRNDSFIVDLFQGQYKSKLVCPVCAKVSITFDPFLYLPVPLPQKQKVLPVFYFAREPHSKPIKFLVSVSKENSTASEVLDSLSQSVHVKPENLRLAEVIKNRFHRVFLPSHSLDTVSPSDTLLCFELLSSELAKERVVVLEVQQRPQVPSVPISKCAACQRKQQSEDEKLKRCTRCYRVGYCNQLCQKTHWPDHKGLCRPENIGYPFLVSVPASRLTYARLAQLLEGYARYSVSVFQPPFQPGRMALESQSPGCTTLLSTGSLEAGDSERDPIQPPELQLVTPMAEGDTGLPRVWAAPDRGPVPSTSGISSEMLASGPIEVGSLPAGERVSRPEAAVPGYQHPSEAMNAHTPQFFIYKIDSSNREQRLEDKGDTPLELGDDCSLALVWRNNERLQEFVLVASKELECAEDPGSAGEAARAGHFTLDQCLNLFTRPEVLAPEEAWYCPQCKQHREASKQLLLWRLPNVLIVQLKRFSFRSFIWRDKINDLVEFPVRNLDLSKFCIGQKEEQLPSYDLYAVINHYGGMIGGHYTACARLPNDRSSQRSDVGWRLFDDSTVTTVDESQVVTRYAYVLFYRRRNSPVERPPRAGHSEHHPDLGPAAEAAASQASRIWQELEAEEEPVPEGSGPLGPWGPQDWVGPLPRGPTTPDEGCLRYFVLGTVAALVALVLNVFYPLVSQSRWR

IC50 | SMILES
50 to 250 µM | O=C(CCC1CCC1)N1CCC(O)(Cn2cnc(-c3ccccc3F)cc2=O)CC1 [Example 3, 3-((1-(3-Cyclobutylpropanoyl)-4-hydroxypiperidin-4-yl)methyl)-6-(2-fluorophenyl)pyrimidin-4(3H)-one]
5 to 50 µM | C[C@H](CC1CC1)C(=O)N1CCC(O)(Cn2cc(C(=O)N(C)C)c(-c3ccccc3)cc2=O)C(C)(C)C1 (stereo partly drawn) [Example 129, 1-((1-((R)-3-Cyclopropyl-2-methylpropanoyl)-4-hydroxy-3,3-dimethylpiperidin-4-yl)methyl)-N,N-dimethyl-6-oxo-4-phenyl-1,6-dihydropyridine-3-carboxamide]
0.5 to 5 µM | C[C@H](CC1CCCCC1)C(=O)N1CC[C@@](O)(Cn2cc(C(=O)N3CCNCC3)c(C3CC3)cc2=O)C(C)(C)C1 [Example 221, 1-(((S)-1-((R)-3-Cyclohexyl-2-methylpropanoyl)-4-hydroxy-3,3-dimethylpiperidin-4-yl)methyl)-4-cyclopropyl-5-(piperazine-1-carbonyl)pyridin-2(1H)-one]
< 0.5 µM | C[C@H](CC1CCCCC1)C(=O)N1CC[C@@](O)(Cn2cc(C(=O)N(C)C)c(-c3ccccc3F)cc2=O)C2(CCCC2)C1 [Example 226, 1-(((S)-7-((R)-3-Cyclohexyl-2-methylpropanoyl)-10-hydroxy-7-azaspiro[4.5]decan-10-yl)methyl)-4-(2-fluorophenyl)-N,N-dimethyl-6-oxo-1,6-dihydropyridine-3-carboxamide]
0.5 to 5 µM | CC1(C)CN(C(=O)[C@H](CO)CC2CCC2)CCC1(O)Cn1cnc(-c2ccccc2F)cc1=O (stereo partly drawn) [Example 200, 3-((1-((S)-3-Cyclobutyl-2-(hydroxymethyl)propanoyl)-4-hydroxy-3,3-dimethylpiperidin-4-yl)methyl)-6-(2-fluorophenyl)pyrimidin-4(3H)-one]
< 0.5 µM | CN(C)C(=O)c1cn(CC2(O)CCN(C(=O)C(O)CC3CCCCC3)CC23CCCC3)c(=O)cc1-c1ccccc1 (stereo not shown) [Example 157, 1-((7-(3-Cyclohexyl-2-hydroxypropanoyl)-10-hydroxy-7-azaspiro[4.5]decan-10-yl)methyl)-N,N-dimethyl-6-oxo-4-phenyl-1,6-dihydropyridine-3-carboxamide]
50 to 250 µM | O=C(CCC1CCCCC1)N1C[C@H]2CC[C@@H](C1)C2(O)Cn1cnc(-c2ccccc2F)cc1=O (stereo partly drawn) [Example 113, 3-(((1R,5S)-3-(3-Cyclohexylpropanoyl)-8-hydroxy-3-azabicyclo[3.2.1]octan-8-yl)methyl)-6-(2-fluorophenyl)pyrimidin-4(3H)-one]
< 0.5 µM | C[C@H](CC1CC1)C(=O)N1CCC(O)(Cn2cc(C(=O)N(C)C)c(-c3ccccc3)cc2=O)C2(CCCC2)C1 (stereo partly drawn) [Example 149, 1-((7-((R)-3-Cyclopropyl-2-methylpropanoyl)-10-hydroxy-7-azaspiro[4.5]decan-10-yl)methyl)-N,N-dimethyl-6-oxo-4-phenyl-1,6-dihydropyridine-3-carboxamide]
50 to 250 µM | CN(C)C(=O)c1cn(CC2(O)CCN(C(=O)C3CC3)CC23CCCC3)c(=O)cc1-c1ccccc1 (stereo not shown) [Example 175, 1-((7-(Cyclopropanecarbonyl)-10-hydroxy-7-azaspiro[4.5]decan-10-yl)methyl)-N,N-dimethyl-6-oxo-4-phenyl-1,6-dihydropyridine-3-carboxamide]
0.5 to 5 µM | C[C@H](CC(=O)N1CCC(O)(Cn2cc(C(=O)N(C)C)c(-c3ccccc3)cc2=O)C2(CCCC2)C1)c1ccccc1 (stereo partly drawn) [Example 185, 1-((10-Hydroxy-7-((R)-3-phenylbutanoyl)-7-azaspiro[4.5]decan-10-yl)methyl)-N,N-dimethyl-6-oxo-4-phenyl-1,6-dihydropyridine-3-carboxamide]
50 to 250 µM | C[C@H](CC(=O)N1CCC(O)(Cn2ccc(-c3ccccc3)cc2=O)CC1)c1ccccc1 [Example 27, (R)-1-((4-Hydroxy-1-(3-phenylbutanoyl)piperidin-4-yl)methyl)-4-phenylpyridin-2(1H)-one]
5 to 50 µM | CN(C)C(=O)c1cn(CC2(O)CCN(C(=O)C3CC(C(F)(F)F)C3)CC23CCCC3)c(=O)cc1-c1ccccc1 (stereo not shown) [Example 229, 1-((10-Hydroxy-7-(3-(trifluoromethyl)cyclobutane-1-carbonyl)-7-azaspiro[4.5]decan-10-yl)methyl)-N,N-dimethyl-6-oxo-4-phenyl-1,6-dihydropyridine-3-carboxamide]
50 to 250 µM | CN(C)C(=O)c1cn(CC2(O)CCN(C(=O)c3c[nH]c4ccccc34)CC23CCCC3)c(=O)cc1-c1ccccc1 (stereo not shown) [Example 190, 1-((10-Hydroxy-7-(1H-indole-3-carbonyl)-7-azaspiro[4.5]decan-10-yl)methyl)-N,N-dimethyl-6-oxo-4-phenyl-1,6-dihydropyridine-3-carboxamide]
0.5 to 5 µM | C[C@H](CC1CCC1)C(=O)N1CC[C@@](O)(Cn2cc(C(=O)N3CCNCC3)c(C3CC3)cc2=O)C2(CCCC2)C1 [Example 231, 1-(((S)-7-((R)-3-Cyclobutyl-2-methylpropanoyl)-10-hydroxy-7-azaspiro[4.5]decan-10-yl)methyl)-4-cyclopropyl-5-(piperazine-1-carbonyl)pyridin-2(1H)-one]
5 to 50 µM | C=C(C)c1cc(=O)n(CC2(O)CCN(C(=O)C[C@@H](C)c3ccccc3)CC2)cc1-c1ccccc1 [Example 12, (R)-1-((4-Hydroxy-1-(3-phenylbutanoyl)piperidin-4-yl)methyl)-5-phenyl-4-(prop-1-en-2-yl)pyridine-2(1H)-one]
5 to 50 µM | C[C@H](CC(=O)N1CCC(O)(Cn2cc(N3CCCC3=O)c(-c3ccccc3)cc2=O)CC1)c1ccccc1 [Example 55, (R)-1-((4-Hydroxy-1-(3-phenylbutanoyl)piperidin-4-yl)methyl)-5-(2-oxopyrrolidin-1-yl)-4-phenylpyridin-2(1H)-one]
< 0.5 µM | C[C@H](CC1CCCCC1)C(=O)N1CCC(O)(Cn2cc(C(=O)N(C)C)c(Cl)cc2=O)C2(CCCC2)C1 (stereo partly drawn) [Example 144, 4-chloro-1-((7-((R)-3-cyclohexyl-2-methylpropanoyl)-10-hydroxy-7-azaspiro[4.5]decan-10-yl)methyl)-N,N-dimethyl-6-oxo-1,6-dihydropyridine-3-carboxamide]
0.5 to 5 µM | CC(C)N(C)C(=O)c1cn(CC2(O)CCN(C(=O)CCC3CCC3)CC2(C)C)c(=O)cc1-c1ccccc1 (racemic) [Example 79, (R,S)-1-((1-(3-Cyclobutylpropanoyl)-4-hydroxy-3,3-dimethylpiperidin-4-yl)methyl)-N-isopropyl-N-methyl-6-oxo-4-phenyl-1,6-dihydropyridine-3-carboxamide]
5 to 50 µM | C[C@H](CC(=O)N1CCC(O)(Cn2cc(-c3ccnn3C)c(-c3ccccc3)cc2=O)CC1)c1ccccc1 [Example 9, (R)-1-((4-Hydroxy-1-(3-phenylbutanoyl)piperidin-4-yl)methyl)-5-(1-methyl-1H-pyrazol-5-yl)-4-phenylpyridin-2(1H)-one]
< 0.5 µM | C[C@H](CC1CCCCC1)C(=O)N1CCC(O)(Cn2cnc(-c3ccc(CO)cc3)cc2=O)C(C)(C)C1 (stereo partly drawn) [Example 139, 3-((1-((R)-3-Cyclohexyl-2-methylpropanoyl)-4-hydroxy-3,3-dimethylpiperidin-4-yl)methyl)-6-(4-(hydroxymethyl)phenyl)pyrimidin-4(3H)-one]
< 0.5 µM | C[C@H](CC1CCCCC1)C(=O)N1CC[C@@](O)(Cn2cc(C(=O)N3CCOCC3)c(-c3ccccc3)cc2=O)C2(CCCC2)C1 [Example 239, 1-(((S)-7-((R)-3-Cyclohexyl-2-methylpropanoyl)-10-hydroxy-7-azaspiro[4.5]decan-10-yl)methyl)-5-(morpholine-4-carbonyl)-4-phenylpyridin-2(1H)-one]
50 to 250 µM | C[C@H](CC(=O)N1CCC(O)(Cn2cc(C=O)c(-c3ccccc3)cc2=O)CC1)c1ccccc1 [Example 45, (R)-1-((4-Hydroxy-1-(3-phenylbutanoyl)piperidin-4-yl)methyl)-6-oxo-4-phenyl-1,6-dihydropyridine-3-carbaldehyde]
5 to 50 µM | C[C@H](CC(=O)N1CCC(O)(Cn2cc(C(=O)N3CCN(C(=O)OC(C)(C)C)CC3)c(-c3ccccc3)cc2=O)CC1)c1ccccc1 [Example 93, (R)-tert-Butyl 4-(1-((4-hydroxy-1-(3-phenylbutanoyl)piperidin-4-yl)methyl)-6-oxo-4-phenyl-1,6-dihydropyridine-3-carbonyl)piperazine-1-carboxylate]
< 0.5 µM | C[C@H](CC1CCCCC1)C(=O)N1CC[C@@](O)(Cn2cc(C(=O)O)c(-c3ccccc3)cc2=O)C2(CCCC2)C1 [Example 253, 1-(((S)-7-((R)-3-Cyclohexyl-2-methylpropanoyl)-10-hydroxy-7-azaspiro[4.5]decan-10-yl)methyl)-6-oxo-4-phenyl-1,6-dihydropyridine-3-carboxylic acid]
< 0.5 µM | CC(C)N(C)C(=O)c1cn(CC2(O)CCN(C(=O)[C@H](C)CC3CCCCC3)CC2(C)C)c(=O)cc1-c1ccccc1 (mixture of isomers) [Example 73, 1-(((R)-1-((R)-3-Cyclohexyl-2-methylpropanoyl)-4-hydroxy-3,3-dimethylpiperidin-4-yl)methyl)-N-isopropyl-N-methyl-6-oxo-4-phenyl-1,6-dihydropyridine-3-carboxamide and 1-(((S)-1-((R)-3-Cyclohexyl-2-methylpropanoyl)-4-hydroxy-3,3-dimethylpiperidin-4-yl)methyl)-N-isopropyl-N-methyl-6-oxo-4-phenyl-1,6-dihydropyridine-3-carboxamide]
5 to 50 µM | COc1ccccc1-c1cc(=O)n(CC2(O)CCN(C(=O)C[C@@H](C)c3ccccc3)CC2)cn1 [Example 17, (R)-3-((4-Hydroxy-1-(3-phenylbutanoyl)piperidin-4-yl)methyl)-6-(2-methoxyphenyl)pyrimidin-4(3H)-one]
5 to 50 µM | CC(Cc1ccccc1)C(=O)N1CCC(O)(Cn2cnc(-c3ccccc3F)cc2=O)CC1 (racemic) [Example 5, (R,S)-6-(2-Fluorophenyl)-3-((4-hydroxy-1-(2-methyl-3-phenylpropanoyl)piperidin-4-yl)methyl)pyrimidin-4(3H)-one]
5 to 50 µM | C[C@H](CC1CCCCC1)C(=O)N1CCC(O)(Cn2cnccc2=O)C2(CCCC2)C1 (stereo partly drawn) [Example 134, 3-((7-((R)-3-Cyclohexyl-2-methylpropanoyl)-10-hydroxy-7-azaspiro[4.5]decan-10-yl)methyl)pyrimidin-4(3H)-one]
